Assay results: US8742068B2, “Treatment and prevention of inflammatory diseases and autoimmune diseases” (Universiteit Utrecht Holding B.V., priority 2007, dated 2014)

How the values were obtained:
Type in all cases: in vivo, BALB/c mice
DSS colitis [1] = assay: DSS colitis (Utrecht study, Example 5); details: for Colon Length (cm), average: 4 x 30 μg oral gavage, 3% DSS 7 days, n=10
Method: This study is performed with female BALB/c mice aged 7 weeks at the start of the experiment. Groups of mice (n=10) were treated 4 times (days 7, 9, 11, 14) with 30 μg HSP70 in 100 μl PBS (Mt hsp70; batch 031205; 2.1 Endotoxin Units/mg) or vehicle (100 μl PBS), administered via oral gavage. 10 minutes prior to gavage animals received 2 mg soybean trypsin inhibitor (SBTI) in 0.15M sodium bicarbonate, pH 8.0. Colitis was induced by administering drinking water supplemented with 3% DSS during 7 days.
Disease onset was followed by determination of body weight and stool consistency, resulting in clinical state as explained in the table below.
At dissection, colon length was recorded
Colons were cut longitudinally and divided into parts to determine: • histology on formalin-fixed paraffin sections • MPO activity in homogenates (indicative for neutrophilic infiltrations) • Ex-vivo cytokine release (TNFα, IL10) from distal colon sample.
Total score is calculated by the adding the score for each parameter and divided by 3.
Distal colon samples were incubated for 24 h and IL10 content in supernatant was measured using a specific ELISA. IL10 release from distal colon sample in healthy BALB/c mice is 450±328 pg/g colon.

DSS colitis [2] = assay: DSS colitis, peroral treatment (Prague study, 1st part, Example 3)
Method: Fifteen conventional female Balb/c female mice (7 to 9 weeks old) were randomly separated in […] (five mice each). To evaluate the efficacy of per oral treatment, the antigens (full length Mycobacterial HSP70 protein) were administered together with 1 mg of Soybean trypsin inhibitor (SBTI, Sigma) dissolved in 50 μl of 0.15 M sodium bicarbonate, by gavage 4 times in one week interval. After one week the mice received 3% dextran sodium sulfate (DSS) in their drinking water continuously for up to 7 days. Colitis was evaluated on day 35 by a clinical activity score, by colon length and histological score.
• treated: 100 μl of sterile PBS/SBTI intragastrically (Control group) Group B1 (HSP60+DSS): • treated: HSP60 30 μg/mouse in 100 μl of sterile PBS/SBTI (1:1) intragastrically Group C1 (HSP70+DSS): • treated: HSP70 30 μg/mouse in 100 μl of sterile PBS/SBTI (1:1) intragastrically Results

TNBS-induced colitis = assay: TNBS colitis (Example 6)
Method: Female BALB/c mice (Charles River-Germany), 10-12 weeks of age at start of the experiment, were either treated intragastrically or intranasally with full HSP70 [SEQ ID NO: 55] or HSP70 peptides (Mycobacterial HSP70 derived peptide “C1” shown in SEQ ID NO: 3 and mouse homologue peptide “mC1a” of SEQ ID NO: 4) prior to disease induction. Mice received 4×30 μg HSP70 intragastrically, in a period of 4 weeks. Stomach contents were neutralized by administering soybean trypsin inhibitor (SBTI) 10 minutes prior to oral HSP70 administration.
Intranasal treatment was performed with 4×30 μg HSP70 or 4×(67 μg peptide C1 (Mycobacterial tub. HSP70 peptide 141-155, VLRIVNEPTAAALAY) mixed with 33 μg peptide mC1a (=mouse Grp75 (hspa9) peptide 216-230, […])), in a period of 1 week.
Next, mice were sensitized by painting the shaved abdomen with 1 mg of TNBS in 100 μl 50% ethanol on two consecutive days, followed by a rectal challenge with 1 mg TNBS in 100 μl 40% ethanol, after 6 days. Mice were dissected 3 days later, and colonic inflammation was determined based on colon length, weight and morphology. Furthermore, cytokine production within colon and draining caudal lymph nodes (CLN) were determined.
• A. Oral PBS, sensitization TNBS, challenge TNBS (control group) • B. Oral (full length) HSP70, sensitization TNBS, challenge TNBS (oral group) • C. […]

[3] = 30 μg/mouse intragastrically with SBTI, 4 times before 3% DSS, 5 mice
[4] = Multiple Range Tests, * p < 0.05

HSP70: full length Mycobacterial HSP70 protein (SEQ ID NO: 55)
Colon Length (cm), average (DSS colitis [1]): 6.8 cm
Colon Length (cm), average (DSS colitis [1]; listed as HSP70 protein): less decreased
disease severity (clinical score, disease progression) (DSS colitis [1]; pre-treatment 4 x 30 μg oral gavage): decreased disease severity
Histological grade, Average (DSS colitis [2]; [3]): 1.4
Weight change, Average (DSS colitis [2]; [3]): −2.04
Colon length, Average (DSS colitis [2]; 30 μg/mouse intragastrically with SBTI, 4 times in one week interval before 3% DSS, day 35, 5 mice): 6.36
Clinical state, Difference (contrast PBS minus treatment) (DSS colitis [2]; [4]): *1.3332
Colon length, Difference (contrast PBS minus treatment) (DSS colitis [2]; [4]): −0.2
Histological grade, Difference (contrast PBS minus treatment) (DSS colitis [2]; [4]): *0.75
Weight change, Difference (contrast PBS minus treatment) (DSS colitis [2]; [4]): *−6.52
effect on colitis (DSS colitis [2]; administered orally, prophylactically (prior to disease induction)): suppressive effect on colitis
Clinical state, Average (DSS colitis [2]; total score of weight loss, stool consistency, bleeding divided by 3, 30 μg/mouse intragastrically, 5 mice): 2.1334
IL-10 responses in the caudal lymphnodes (TNBS-induced colitis; orally given, CD3/CD28 restimulation of draining lymph node cells): elevated IL-10 responses
effect on TNBS induced colitis (TNBS-induced colitis; prophylactically, HSP70 4x30 μg orally or intranasally, peptides 4x(67 μg C1 + 33 μg mC1a) intranasally): suppressive effect on TNBS induced colitis
